Literature values in PubChem BioAssay AID1259409 (Chemical Carcinogenesis Research Information System (CCRIS), 2018).

Tested on: rodent chemically induced tumor inhibition, incidence and multiplicity
Assay: CCRIS tumor inhibitor studies

For `O=[Se]=O`, the “tumour outcome (control, treated, inhibition, significance)” value (Carcinogen: N-2-FLUORENYLACETMIDE, 53-96-3, Dose [Inhibitor]: 0.1 PPM IN DIET DAILY STARTING SIMULTANEOUSLY WITH CARCINOGEN TREATMENT AT AGE 35 D AND CONTINUING FOR DURATION OF STUDY, Route [Inhibitor]: ORAL, Species: RAT, Strain/Sex: OSU-BROWN/FEMALE, Target Tissue: Type of Lesion: LIVER: HEPATOMA, Dose [Carcinogen]: 150 PPM IN DIET DAILY FOR DURATION OF STUDY, Promoter: NONE USED) is given as 85%, 100%, -18%, not calculated, the “tumour outcome (control, treated, inhibition, significance)” value (Carcinogen: N-2-FLUORENYLACETMIDE, 53-96-3, Dose [Inhibitor]: 0.1 PPM IN DIET DAILY STARTING SIMULTANEOUSLY WITH CARCINOGEN TREATMENT AT AGE 35 D AND CONTINUING FOR DURATION OF STUDY, Route [Inhibitor]: ORAL, Species: RAT, Strain/Sex: OSU-BROWN/FEMALE, Target Tissue: Type of Lesion: MAMMARY GLAND: ADENOCARCINOMA, Dose [Carcinogen]: 150 PPM IN DIET DAILY FOR DURATION OF STUDY, Promoter: NONE USED) is given as 94%, 100%, -6%, not calculated and the “tumour outcome (control, treated, inhibition, significance)” value (Carcinogen: N-2-FLUORENYLACETMIDE, 53-96-3, Dose [Inhibitor]: 0.5 PPM IN DIET DAILY STARTING SIMULTANEOUSLY WITH CARCINOGEN TREATMENT AT AGE 35 D AND CONTINUING FOR DURATION OF STUDY, Route [Inhibitor]: ORAL, Species: RAT, Strain/Sex: OSU-BROWN/FEMALE, Target Tissue: Type of Lesion: LIVER: HEPATOMA, Dose [Carcinogen]: 150 PPM IN DIET DAILY FOR DURATION OF STUDY, Promoter: NONE USED) is given as 85%, 80%, 6%, not calculated. For the same molecule, the “tumour outcome (control, treated, inhibition, significance)” value (Carcinogen: N-2-FLUORENYLACETMIDE, 53-96-3, Dose [Inhibitor]: 0.5 PPM IN DIET DAILY STARTING SIMULTANEOUSLY WITH CARCINOGEN TREATMENT AT AGE 35 D AND CONTINUING FOR DURATION OF STUDY, Route [Inhibitor]: ORAL, Species: RAT, Strain/Sex: OSU-BROWN/FEMALE, Target Tissue: Type of Lesion: MAMMARY GLAND: ADENOCARCINOMA, Dose [Carcinogen]: 150 PPM IN DIET DAILY FOR DURATION OF STUDY, Promoter: NONE USED) was 94%, 85%, 10%, not calculated, the “tumour outcome (control, treated, inhibition, significance)” value (Carcinogen: N-2-FLUORENYLACETMIDE, 53-96-3, Dose [Inhibitor]: 2.5 PPM IN DIET DAILY STARTING SIMULTANEOUSLY WITH CARCINOGEN TREATMENT AT AGE 35 D AND CONTINUING FOR DURATION OF STUDY, Route [Inhibitor]: ORAL, Species: RAT, Strain/Sex: OSU-BROWN/FEMALE, Target Tissue: Type of Lesion: LIVER: HEPATOMA, Dose [Carcinogen]: 150 PPM IN DIET DAILY FOR DURATION OF STUDY, Promoter: NONE USED) was 85%, 50%, 41%, not calculated and the “tumour outcome (control, treated, inhibition, significance)” value (Carcinogen: N-2-FLUORENYLACETMIDE, 53-96-3, Dose [Inhibitor]: 2.5 PPM IN DIET DAILY STARTING SIMULTANEOUSLY WITH CARCINOGEN TREATMENT AT AGE 35 D AND CONTINUING FOR DURATION OF STUDY, Route [Inhibitor]: ORAL, Species: RAT, Strain/Sex: OSU-BROWN/FEMALE, Target Tissue: Type of Lesion: MAMMARY GLAND: ADENOCARCINOMA, Dose [Carcinogen]: 150 PPM IN DIET DAILY FOR DURATION OF STUDY, Promoter: NONE USED) was 94%, 68%, 28%, not calculated. The “tumour outcome (control, treated, inhibition, significance)” value (Carcinogen: NONE USED, Dose [Inhibitor]: 0.1 PPM IN DRINKING WATER DAILY FOR 22 MO STARTING AT AGE 2 MO AND CONTINUING FOR DURATION OF STUDY (STUDY DURATION: 22, Route [Inhibitor]: ORAL, Species: MOUSE, Strain/Sex: C3H/FEMALE, Target Tissue: Type of Lesion: MAMMARY GLAND: ADENOCARCINOMA, Promoter: NONE USED) was 42%, 25%, 40%, not calculated, the “tumour outcome (control, treated, inhibition, significance)” value (Carcinogen: NONE USED, Dose [Inhibitor]: 0.5 PPM IN DRINKING WATER DAILY FOR 22 MO STARTING AT AGE 2 MO AND CONTINUING FOR DURATION OF STUDY (STUDY DURATION: 22, Route [Inhibitor]: ORAL, Species: MOUSE, Strain/Sex: C3H/FEMALE, Target Tissue: Type of Lesion: MAMMARY GLAND: ADENOCARCINOMA, Promoter: NONE USED) was 42%, 19%, 55%, not calculated and the “tumour outcome (control, treated, inhibition, significance)” value (Carcinogen: NONE USED, Dose [Inhibitor]: 1 PPM IN DRINKING WATER DAILY FOR 22 MO STARTING AT AGE 2 MO AND CONTINUING FOR DURATION OF STUDY (STUDY DURATION: 22 MO, Route [Inhibitor]: ORAL, Species: MOUSE, Strain/Sex: C3H/FEMALE, Target Tissue: Type of Lesion: MAMMARY GLAND: ADENOCARCINOMA, Promoter: NONE USED) was 42%, 10%, 76%, not calculated. The “tumour outcome (control, treated, inhibition, significance)” value (Carcinogen: NONE USED, Dose [Inhibitor]: 2 PPM IN DRINKING WATER DAILY FOR DURATION OF STUDY (STUDY DURATION: 16 MO), Route [Inhibitor]: ORAL, Species: MOUSE, Strain/Sex: C3H/FEMALE, Target Tissue: Type of Lesion: MAMMARY GLAND: ADENOCARCINOMA, Promoter: NONE USED) was 82%, 10%, 88%, not calculated, the “tumour outcome (control, treated, inhibition, significance)” value (Carcinogen: NONE USED, Dose [Inhibitor]: 5 PPM IN DRINKING WATER DAILY STARTING AT AGE 1 MO AND CONTINUING FOR LIFE (STUDY DURATION: LIFE), Route [Inhibitor]: ORAL, Species: MOUSE, Strain/Sex: C3H/FEMALE, Target Tissue: Type of Lesion: MAMMARY GLAND: TUMOR, Promoter: NONE USED) was 82%, 36%, 56%, p<0.005 and the “tumour outcome (control, treated, inhibition, significance)” value (Carcinogen: NONE USED, Dose [Inhibitor]: 15 PPM IN DRINKING WATER DAILY STARTING AT AGE 1 MO AND CONTINUING FOR LIFE (STUDY DURATION: LIFE), Route [Inhibitor]: ORAL, Species: MOUSE, Strain/Sex: C3H/FEMALE, Target Tissue: Type of Lesion: MAMMARY GLAND: TUMOR, Promoter: NONE USED) was 82%, 33%, 60%, p<0.005.
For `O=C1C[C@@H](c2ccc(O)cc2)Oc2cc(O)cc(O)c21`, the “tumour outcome (control, treated, inhibition, significance)” value (Carcinogen: 7,12-DIMETHYLBENZ[A]ANTHRACENE, 57-97-6, Dose [Inhibitor]: 100 UG IN 0.2 ML ACETONE ONCE 5 MIN BEFORE CARCINOGEN TREATMENT (STUDY DURATION: 31 WK), Route [Inhibitor]: DERMAL, Species: MOUSE, Strain/Sex: CD-1/FEMALE, Target Tissue: Type of Lesion: SKIN: PAPILLOMA, Dose [Carcinogen]: 10 NMOL IN 0.2 ML ACETONE ONCE, Promoter: 12-O-TETRADECANOYLPHORBOL-13-ACETATE, 16561-29-8) is listed as 87%, 94%, -8%, not calculated and the outcome (Carcinogen: N-Methyl-N'-nitro-N-nitrosoguanidine (70-25-7) and saturated sodium chloride (7647-14-5), Dose [Inhibitor]: 200 mg/kg bw dissolved in corn oil for 20 wk from first dose of MNNG + NaCl and from the 6th wk of MNNG + NaCl induction, Route [Inhibitor]: Gavage, Species: Rat, Strain/Sex: Wistar/Male, Target Tissue: Type of Lesion: Stomach, Dose [Carcinogen]: 200 mg/kg at days 0 and 14 (MNNG) and 1 ml/rat 3 days for 4 wk (NaCl); study duration 20 wk), Promoter: None) is listed as 0 (0) in negative controls; 6 (100) in positive controls; 0 (0) simultaneous tre.
